Assay results reported in patent US20220380341A1, “INHIBITORS OF HIV-1 NEF FOR THE TREATMENT OF HIV DISEASE” (priority 2018, published 2022).
Like-named read-outs stand apart in the source and are kept apart here.

Key:
HIV-1 NefNL4-3 = HIV-1 NefNL4-3 (Human immunodeficiency virus type 1 group M subtype B, UniProt P03406, A33V/T15A/T51N/V11I); experiment: Surface plasmon resonance binding to recombinant full-length Nef (NL4-3); conditions: for RU30/RUNef (extent of binding): response units at 30 μM relative to Nef immobilized on the SPR chip
TZM-bl cell line = format: cell-based; conditions: human, 1 μM
In short: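 Read-out is luciferase from an integrated HIV-1 LTR reporter in TZM-bl cells, 48 h after HIV-1NL4-3 infection in the presence of 1 μM compound. Scale set by DMSO-treated wild-type-infected cells (0%) and Nef-defective virus (100% Nef-dependent effect). Cell Titer Blue measures cytotoxicity without virus.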

HIV-1NL4-3 = experiment: HIV-1 infectivity assay in TZM-bl reporter cell line (LTR-luciferase, 48 h); format: cell-based; conditions: Human immunodeficiency virus 1, TZM-bl
In short: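 Compounds were tested at 1 μM in TZM-bl cells infected with HIV-1NL4-3. Infectivity was read as luciferase signal 48 h after infection and expressed as percent inhibition, normalized between DMSO-treated wild-type infection (0%) and DMSO-treated Nef-defective HIV-1 infection (100% of the Nef-dependent effect).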

[1] = KD, M, Table 4, SPR fit 1:1 Langmuir, KD = koff/kon
[2] = Table 4, 1:1 Langmuir fit, T = 1/koff
[3] = 1.0 μM, TZM-bl reporter cell line, Table 4, read-out: % Infectivity Inhibition
[4] = 48 h, Table 1, TZM-bl cells, 1 μM, 48 h, 100% = Nef-defective HIV-1, read-out: HIV-1 Infectivity % Inhibition Norm. to Δ-Nef @ 1 μM
[5] = KD, M, Table 4, SPR fit 2-step induced fit, KD = koff/kon × koff2/(koff2 + kon2)
[6] = Nef NL4-3 Binding, SPR 2-state fitting KD, Table 1, 2-step induced-fit model
[7] = Table 4, 2-step induced fit, T = 1/koff2

Row | SMILES | Kd (HIV-1 NefNL4-3) | Kd (HIV-1 NefNL4-3; [1]) | T, minutes (residence time) (HIV-1 NefNL4-3; [2]) | RU30/RUNef (extent of binding) (HIV-1 NefNL4-3) | % Cell Viability (TZM-bl cell line) | Percent Viability @ 1 μM (TZM-bl cells) (TZM-bl cell line) | inhibition at 1 µM (HIV-1NL4-3; [3]) | inhibition at 1 µM (HIV-1NL4-3; [4]) | Kd (HIV-1 NefNL4-3; [5]) | Kd (HIV-1 NefNL4-3; [6]) | T, minutes (residence time) (HIV-1 NefNL4-3; [7]) | Nef NL4-3 Binding, SPR 1:1 or 2-site fitting KD1 (HIV-1 NefNL4-3; Table 1, 1:1 Langmuir fit where the KD2 cell says '1 to 1 fitting', else 2-site fit) | Kd (HIV-1 NefNL4-3; Nef NL4-3 Binding, SPR 1:1 or 2-site fitting KD2, Table 1, 2-site fit, second component)
1 | Cn1cccc(CCc2c(-c3ccc(C(F)(F)F)cc3)nn(-c3nc4ccccc4[nH]3)c2O)c1=O [Compound I-137, 3-{2-[1-(1H-1,3-benzodiazol-2-yl)-5-hydroxy-3-[4-(trifluoromethyl)phenyl]-1H-pyrazol-4-yl]ethyl}-1-methyl-1,2-dihydropyridin-2-one] | 243 nM | 243 nM | 5.36E + 00 minutes | 1.02E- 03 | 99.4% | 99.4% | 0% | -1.4% |  |  |  |  | 
2 | COc1cccc(-c2nn(-c3nc4ccccc4[nH]3)c(O)c2CCc2ccc(F)cc2)n1 [Compound I-138, 1-(1H-1,3-benzodiazol-2-yl)-4-[2-(4-fluorophenyl)ethyl]-3-(6-methoxypyridin-2-yl)-1H-pyrazol-5-ol] | 3960 nM |  |  |  |  | 95.8% |  | 48.2% |  |  |  |  | 
3 | Oc1c(CCC2CCOCC2)c(-c2ccc(C(F)(F)F)cc2)nn1-c1nc2ccccc2[nH]1 [Compound I-139, 1-(1H-1,3-benzodiazol-2-yl)-4-[2-(oxan-4-yl)ethyl]-3-[4-(trifluoromethyl)phenyl]-1H-pyrazol-5-ol] | 556 nM |  |  | 3.41E- 03 | 80.8% | 80.8% | 44.1% | 44.1% | 2070 nM | 2070 nM | 1.77E + 01 minutes |  | 
4 | Cc1ccc(-c2nn(-c3nc4ccccc4[nH]3)c(O)c2CCc2ccc(F)cc2)cn1 [Compound I-140, 1-(1H-1,3-benzodiazol-2-yl)-4-[2-(4-fluorophenyl)ethyl]-3-(6-methylpyridin-3-yl)-1H-pyrazol-5-ol] | 915 nM |  |  |  |  | 98.3% |  | 57.3% |  |  |  |  | 
5 | Oc1c(CCn2nccn2)c(-c2ccc(C(F)(F)F)cc2)nn1-c1nc2ccccc2[nH]1 [Compound I-141, 1-(1H-1,3-benzodiazol-2-yl)-4-[2-(2H-1,2,3-triazol-2-yl)ethyl]-3-[4-(trifluoromethyl)phenyl]-1H-pyrazol-5-ol] |  |  |  |  |  | 99.5% |  | 8.7% |  |  |  | No Interaction | 
6 | Cc1nccn1CCc1c(-c2ccc(C(F)(F)F)cc2)nn(-c2nc3ccccc3[nH]2)c1O [Compound I-142, 1-(1H-1,3-benzodiazol-2-yl)-4-[2-(2-methyl-1H-imidazol-1-yl)ethyl]-3-[4-(trifluoromethyl)phenyl]-1H-pyrazol-5-ol] | 32800 nM |  |  |  |  | 100.2% |  | -7.8% |  |  |  |  | 
7 | Oc1c(CCn2cc(Cl)cn2)c(-c2ccc(C(F)(F)F)cc2)nn1-c1nc2ccccc2[nH]1 [Compound I-143, 1-(1H-1,3-benzodiazol-2-yl)-4-[2-(4-chloro-1H-pyrazol-1-yl)ethyl]-3-[4-(trifluoromethyl)phenyl]-1H-pyrazol-5-ol] | 426 nM | 426 nM | 1.75E + 01 minutes | 1.02E- 03 | 98.9% | 98.9% | 0% | -19.6% |  |  |  |  | 
8 | Oc1c(CCc2ccccn2)c(-c2ccc(C(F)(F)F)cn2)nn1-c1nc2ccccc2[nH]1 [Compound I-146, 1-(1H-1,3-benzodiazol-2-yl)-4-[2-(pyridin-2-yl)ethyl]-3-[5-(trifluoromethyl)pyridin-2-yl]-1H-pyrazol-5-ol] | 1650 nM | 1650 nM | 3.67E + 00 minutes | 6.42E- 04 | 98.5% | 98.5% | 5.7% | 5.7% |  |  |  |  | 
9 | Oc1c(CCc2ccc(Br)cc2)c(-c2ccc(C(F)(F)F)cn2)nn1-c1nc2ccccc2[nH]1 [Compound I-147, 1-(1H-1,3-benzodiazol-2-yl)-4-[2-(4-bromophenyl)ethyl]-3-[5-(trifluoromethyl)pyridin-2-yl]-1H-pyrazol-5-ol] | 0.0752 nM | 0.0752 nM | 4.30E + 04 minutes | 2.11E- 03 | 97.6% | 97.6% | 59.3% | 59.3% |  |  |  |  | 
10 | CS(=O)(=O)c1ccc(-c2nn(-c3nc4ccccc4[nH]3)c(O)c2CCC2CCOCC2)cc1 [Compound I-149, 1-(1H-1,3-benzodiazol-2-yl)-3-(4-methanesulfonylphenyl)-4-[2-(oxan-4-yl)ethyl]-1H-pyrazol-5-ol] | 2330 nM |  |  |  |  | 98.5% |  | 54.5% |  |  |  |  | 
11 | Oc1c(CCC2CCOCC2)c(-c2cccc(F)c2)nn1-c1nc2ccccc2[nH]1 [Compound I-150, 1-(1H-1,3-benzodiazol-2-yl)-3-(3-fluorophenyl)-4-[2-(oxan-4-yl)ethyl]-1H-pyrazol-5-ol] |  |  |  | 4.75E- 03 | 77.7% | 77.7% | 53.9% | 53.9% | 1070 nM | 1070 nM | 9.69E + 00 minutes |  | 10400 nM
12 | OCCc1c(-c2ccc(C(F)(F)F)cc2)nn(-c2nc3ccccc3[nH]2)c1O [Compound I-153, 1-(1H-1,3-benzodiazol-2-yl)-4-(2-hydroxyethyl)-3-[4-(trifluoromethyl)phenyl]-1H-pyrazol-5-ol] | 68.8 nM | 68.8 nM | 9.31E + 00 minutes | 9.06E- 04 | 99.9% | 99.9% | 0% | -20.1% |  |  |  |  | 
13 | CS(=O)(=O)c1ccc(-c2nn(-c3nc4ccccc4[nH]3)c(O)c2CCC2CCN(CC(F)(F)F)CC2)cc1 [Compound I-154, 1-(1H-1,3-benzodiazol-2-yl)-3-(4-methanesulfonylphenyl)-4-{2-[1-(2,2,2-trifluoroethyl)piperidin-4-yl]ethyl}-1H-pyrazol-5-ol] | 28800 nM | 28800 nM | 6.80E + 00 minutes | 4.50E- 03 | 69.3% | 69.3% | 45.4% | 45.4% |  |  |  |  | 
14 | O=C1CN(Cc2nn(-c3nc4ccccc4[nH]3)c(O)c2CCc2ccc(F)cc2)CCN1c1ccccc1 [Compound I-155, 4-{[1-(1H-1,3-benzodiazol-2-yl)-4-[2-(4-fluorophenyl)ethyl]-5-hydroxy-1H-pyrazol-3-yl]methyl}-1-phenylpiperazin-2-one] | 3400 nM |  |  |  |  | 98.2% |  | -5.9% |  |  |  |  | 
15 | Cc1nn(-c2nc3ccccc3[nH]2)c(O)c1Cc1ccc(Cl)cc1F [Compound I-156, 1-(1H-1,3-benzodiazol-2-yl)-4-[(4-chloro-2-fluorophenyl)methyl]-3-methyl-1H-pyrazol-5-ol] | 8.56 nM | 8.56 nM | 7.34E + 02 minutes | 3.62E- 03 | 100% | 101.5% | 15.4% | 15.4% |  |  |  |  | 
16 | Oc1c(CCc2ccc(F)cc2)c(CN2CCOCC2)nn1-c1nc2ccccc2[nH]1 [Compound I-157, 1-(1H-1,3-benzodiazol-2-yl)-4-[2-(4-fluorophenyl)ethyl]-3-[(morpholin-4-yl)methyl]-1H-pyrazol-5-ol] | 7800 nM |  |  |  |  | 100.7% |  | 13.2% |  |  |  |  | 
